One assay addresses EGFR^L858R/T790M/C797S (Homo sapiens, UniProt P00533, C797S/L858R/T790M). Nature of the assay: ELISA kinase activity inhibition, EGFR L858R/T790M/C797S. The class given is biochemical. The conditions noted are these: ATP 5 μM, read-out: The average IC50 value (nM) for inhibiting the activity of different tyrosine kinases, EGFR^L858R/T790M/C797S.
In another assay the target is T1, EGFR^19del/T790M/C797S (Homo sapiens, UniProt P00533, T790M/C797S, form not given).
T1 construct: fused on or other part: Probably a GST tag on the cytoplasmic fragment, as in the vendor's product
Nature of the assay: ELISA kinase activity inhibition, EGFR 19del/T790M/C797S. The class given is biochemical. Conditions: ATP 5 μM, read-out: The average IC50 value (nM) for inhibiting the activity of different tyrosine kinases, EGFR^19del/T790M/C797S.

In another assay the test system is BaF3 parent cell. Kind of assay: CCK-8 cell proliferation, BaF3 parent cell. Conditions: Mus musculus, BaF3; CCK-8, 72 hours; read-out: Average value of IC50 of inhibition against cells growth, BaF3 parent cell. The class given is cell-based. An excerpt: (§1) Ba/F3 cells were obtained from Deutsche Sammlung von Mikroorganismen und Zellkulturen GmbH (DSMZ). Ba/F3 cells stably expressing EGFR19del/T790M/C797S or EGFR L858R/T790M/C797S were generated by infecting parental cells with corresponding retroviruses. PC-9-OR was a tumor cell model obtained by simultaneously knocking in T790M and C797S mutations into 19del-activating mutation-dependent PC-9 tumor cells using CRISPR technology. This model, which proliferated dependent on EGFR19del/T790M/C797S resistance mutation, was used to evaluate the inhibitory activity of compounds against EGFR19del/T790M/C797S resistance mutants (Cancer Science. 2022; 113:709-720). All cells used in the study were verified by short tandem repeat (STR) analysis conducted by Genesky.
(§2) Tumor cell viability was assessed using a CCK-8 cell counting kit (A311-01/02, Vazyme, Nanjing, China). Cells were seeded at a density of 3000 cells per well into 96-well plates and cultured overnight. Subsequently, the cells were treated with compounds of different concentrations and incubated for 72 hours. After 72 hours, 10 μL of CCK-8 solution was added to each well. The plates were then returned to the incubator and incubated at 37° C. for 2 hours. The absorbance was measured at 450 nm using a microplate reader. A calibration curve was constructed using data obtained from wells containing known numbers of viable cells.

A further assay concerns the target T2, EGFR^WT (Homo sapiens, UniProt P00533).
T2 construct: purchased Eurofins
Nature of the assay: ELISA kinase activity inhibition, wild-type EGFR. The conditions noted are these: ATP 5 μM, read-out: The average IC50 value (nM) for inhibiting the activity of different tyrosine kinases, EGFR^WT. The class given is biochemical. (ELISA stands for enzyme-linked immunosorbent assay.)

The target in assay [1] is BaF3-EGFR (19del/T790M/C797S) (Homo sapiens, UniProt P00533, T790M/C797S, cells depend on it, form not given). Nature of the assay: CCK-8 cell proliferation, BaF3-EGFR(19del/T790M/C797S). The conditions noted are these: CCK-8, 72 hours; read-out: Average value of IC50 of inhibition against EGFR-mutant cells growth, BaF3-EGFR (19del/T790M/C797S). It is filed as cell-based. Here is the method:
(§3) Ba/F3 cells were obtained from Deutsche Sammlung von Mikroorganismen und Zellkulturen GmbH (DSMZ). […] All cells used in the study were verified by short tandem repeat (STR) analysis conducted by Genesky.
as §2

The test system of assay [2] is PC-9-OR (19del/T790M/C797S). Nature of the assay: CCK-8 cell proliferation, PC-9-OR. It is filed as cell-based. Conditions: PC9-OR; CCK-8, 72 hours; read-out: Average value of IC50 of inhibition against EGFR-mutant cells growth, PC-9-OR (19del/T790M/C797S).
Excerpt: as §1, §2

For assay [3], the target named is BaF3-EGFR (L858R/T790M/C797S) (Homo sapiens, UniProt P00533, T790M/C797S/L858R, cells depend on it). Kind of assay: CCK-8 cell proliferation, BaF3-EGFR(L858R/T790M/C797S). It is filed as cell-based. The conditions noted are these: CCK-8, 72 hours; read-out: Average value of IC50 of inhibition against EGFR-mutant cells growth, BaF3-EGFR (L858R/T790M/C797S). The procedure:
as §3, §2

Chain of EGFR^L858R/T790M/C797S (P00533 25-1210 T790M/C797S/L858R): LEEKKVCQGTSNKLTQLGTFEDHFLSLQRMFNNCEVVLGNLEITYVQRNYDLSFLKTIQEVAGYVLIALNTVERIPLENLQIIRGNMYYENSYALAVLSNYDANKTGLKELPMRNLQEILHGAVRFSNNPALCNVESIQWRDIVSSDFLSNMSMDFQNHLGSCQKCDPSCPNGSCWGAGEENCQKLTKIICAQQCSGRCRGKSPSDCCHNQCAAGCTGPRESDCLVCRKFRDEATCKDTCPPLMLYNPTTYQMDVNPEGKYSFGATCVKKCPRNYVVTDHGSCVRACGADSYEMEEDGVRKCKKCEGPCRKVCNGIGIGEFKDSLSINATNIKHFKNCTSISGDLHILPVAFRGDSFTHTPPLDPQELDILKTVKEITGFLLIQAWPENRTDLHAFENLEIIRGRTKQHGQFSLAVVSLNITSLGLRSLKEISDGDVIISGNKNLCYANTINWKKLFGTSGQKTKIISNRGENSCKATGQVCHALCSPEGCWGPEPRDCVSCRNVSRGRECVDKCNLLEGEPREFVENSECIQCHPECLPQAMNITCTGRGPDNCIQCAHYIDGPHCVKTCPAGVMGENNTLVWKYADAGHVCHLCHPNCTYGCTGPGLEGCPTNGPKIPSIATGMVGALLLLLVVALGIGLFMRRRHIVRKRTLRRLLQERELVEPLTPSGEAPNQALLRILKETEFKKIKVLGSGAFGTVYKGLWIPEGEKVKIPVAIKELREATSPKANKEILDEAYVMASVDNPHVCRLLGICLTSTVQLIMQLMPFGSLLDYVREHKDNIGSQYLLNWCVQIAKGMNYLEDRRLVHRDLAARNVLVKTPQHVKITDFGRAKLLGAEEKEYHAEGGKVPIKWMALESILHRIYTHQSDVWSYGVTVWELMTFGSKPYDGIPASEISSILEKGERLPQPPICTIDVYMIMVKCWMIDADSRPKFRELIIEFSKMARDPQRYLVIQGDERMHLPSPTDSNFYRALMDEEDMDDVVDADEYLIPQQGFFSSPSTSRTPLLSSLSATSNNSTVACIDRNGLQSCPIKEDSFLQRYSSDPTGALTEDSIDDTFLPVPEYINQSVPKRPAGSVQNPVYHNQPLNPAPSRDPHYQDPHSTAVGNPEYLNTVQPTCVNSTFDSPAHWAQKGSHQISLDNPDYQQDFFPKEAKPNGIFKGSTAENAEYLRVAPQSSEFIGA
Chain of BaF3-EGFR (19del/T790M/C797S) (P00533 with tags, fused parts or gaps DEL746-750/T790M/C797S, form open): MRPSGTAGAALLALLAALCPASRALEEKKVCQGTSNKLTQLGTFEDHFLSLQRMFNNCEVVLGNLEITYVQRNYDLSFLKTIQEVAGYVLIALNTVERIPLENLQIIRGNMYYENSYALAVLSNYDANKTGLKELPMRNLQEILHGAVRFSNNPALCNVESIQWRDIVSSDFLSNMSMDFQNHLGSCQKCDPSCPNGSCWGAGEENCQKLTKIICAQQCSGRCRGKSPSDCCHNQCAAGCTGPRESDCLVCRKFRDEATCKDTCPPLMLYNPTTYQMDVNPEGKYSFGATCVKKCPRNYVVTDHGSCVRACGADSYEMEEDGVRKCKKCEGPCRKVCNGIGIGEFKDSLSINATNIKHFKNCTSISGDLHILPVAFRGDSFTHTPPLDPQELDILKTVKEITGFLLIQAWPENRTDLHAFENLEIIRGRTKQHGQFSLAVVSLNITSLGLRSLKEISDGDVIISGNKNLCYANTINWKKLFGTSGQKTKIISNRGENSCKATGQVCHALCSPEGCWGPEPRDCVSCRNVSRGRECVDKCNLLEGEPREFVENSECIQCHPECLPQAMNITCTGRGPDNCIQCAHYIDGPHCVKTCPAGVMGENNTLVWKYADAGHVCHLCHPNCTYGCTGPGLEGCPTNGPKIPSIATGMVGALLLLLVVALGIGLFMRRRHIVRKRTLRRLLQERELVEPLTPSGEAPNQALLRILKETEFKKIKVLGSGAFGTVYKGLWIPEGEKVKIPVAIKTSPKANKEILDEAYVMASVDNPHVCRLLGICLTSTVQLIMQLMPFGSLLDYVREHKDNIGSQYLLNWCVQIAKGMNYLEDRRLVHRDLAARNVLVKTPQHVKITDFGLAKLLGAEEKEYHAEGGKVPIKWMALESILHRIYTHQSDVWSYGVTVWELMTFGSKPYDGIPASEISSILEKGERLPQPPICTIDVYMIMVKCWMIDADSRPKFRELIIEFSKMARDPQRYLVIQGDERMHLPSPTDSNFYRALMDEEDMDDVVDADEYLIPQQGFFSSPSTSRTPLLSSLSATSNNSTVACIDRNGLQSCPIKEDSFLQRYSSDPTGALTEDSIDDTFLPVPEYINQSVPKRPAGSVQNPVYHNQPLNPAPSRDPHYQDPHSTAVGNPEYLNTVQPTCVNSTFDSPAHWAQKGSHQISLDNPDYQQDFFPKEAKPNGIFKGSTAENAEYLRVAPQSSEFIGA
T1 sequence (P00533 with tags, fused parts or gaps DEL746-750/T790M/C797S, form open): as above
Chain of BaF3-EGFR (L858R/T790M/C797S) (P00533 whole entry T790M/C797S/L858R): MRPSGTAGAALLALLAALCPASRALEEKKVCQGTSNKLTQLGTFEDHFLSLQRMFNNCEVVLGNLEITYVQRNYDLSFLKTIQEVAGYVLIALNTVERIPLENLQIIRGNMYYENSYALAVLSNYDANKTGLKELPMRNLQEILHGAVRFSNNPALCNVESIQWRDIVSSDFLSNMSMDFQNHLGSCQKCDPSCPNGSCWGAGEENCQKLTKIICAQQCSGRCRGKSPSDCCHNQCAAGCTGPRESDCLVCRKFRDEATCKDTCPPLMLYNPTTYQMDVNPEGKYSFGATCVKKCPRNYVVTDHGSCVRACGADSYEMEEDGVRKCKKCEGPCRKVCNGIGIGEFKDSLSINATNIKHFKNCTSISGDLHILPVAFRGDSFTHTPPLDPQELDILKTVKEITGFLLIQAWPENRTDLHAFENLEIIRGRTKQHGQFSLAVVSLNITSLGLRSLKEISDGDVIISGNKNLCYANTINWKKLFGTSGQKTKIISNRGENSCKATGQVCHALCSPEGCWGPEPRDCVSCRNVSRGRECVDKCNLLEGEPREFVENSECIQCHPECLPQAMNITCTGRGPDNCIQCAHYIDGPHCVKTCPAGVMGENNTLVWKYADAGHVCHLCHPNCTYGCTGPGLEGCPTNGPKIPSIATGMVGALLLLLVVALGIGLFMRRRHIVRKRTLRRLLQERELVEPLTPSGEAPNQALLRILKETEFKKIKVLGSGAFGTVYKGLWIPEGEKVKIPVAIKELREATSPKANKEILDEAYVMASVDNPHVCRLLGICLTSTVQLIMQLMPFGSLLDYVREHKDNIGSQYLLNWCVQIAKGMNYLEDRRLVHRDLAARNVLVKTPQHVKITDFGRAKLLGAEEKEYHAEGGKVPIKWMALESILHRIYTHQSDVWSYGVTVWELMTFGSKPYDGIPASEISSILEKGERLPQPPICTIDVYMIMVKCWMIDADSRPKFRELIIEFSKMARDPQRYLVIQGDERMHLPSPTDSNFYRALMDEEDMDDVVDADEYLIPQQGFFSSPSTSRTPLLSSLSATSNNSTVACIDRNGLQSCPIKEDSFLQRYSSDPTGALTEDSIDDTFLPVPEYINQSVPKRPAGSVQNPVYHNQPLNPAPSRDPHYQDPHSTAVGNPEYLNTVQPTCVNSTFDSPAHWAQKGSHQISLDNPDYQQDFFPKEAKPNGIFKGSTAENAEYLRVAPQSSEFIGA

`CCS(=O)(=O)n1cc2c3ccc(cc31)OCCCCn1cc(cn1)-c1cc(ccc1N1CCOCC1)Nc1ncc(Cl)c-2n1` [HC8714, 2^5-Chloro-1^1-Ethylsulfonyl-4^4-morpholino-1^1H,5^1H-10-oxa-3-aza-1(3,6)-Indole-2(4,2)-Pyrimidin-5(4,1)-Pyrazol-4(1,3)-Phenyldecane]: the IC50 at EGFR^L858R/T790M/C797S came to 9.3 nM; on EGFR^19del/T790M/C797S, 2.7 nM; in the assay with BaF3 parent cell it was 274 nM; on EGFR^WT it was 802 nM; in assay [2], 155 nM. Moreover, the GI50 in assay [1] worked out at 91 nM; in assay [3] it was 75 nM.
Consider `Cc1cc(N2CCOCC2)c2cc1Nc1ncc(Cl)c(n1)-c1c[nH]c3cc(ccc13)OCCCn1cc-2cn1` [HC8990, 2^5-Chloro-4^6-Methyl-4^4-morpholino-1^1H,5^1H-9-oxa-3-aza-1(3,6)-Indole-2(4,2)-Pyrimidin-5(4,1)Pyrazol-4(1,3)-benzenacyclononaphane], for which the IC50 on EGFR^L858R/T790M/C797S was determined as 1 nM; at EGFR^19del/T790M/C797S it was 3.4 nM; in the assay with BaF3 parent cell it was 3290 nM; on EGFR^WT it was 342 nM; in assay [2], 531 nM. Also, the GI50 in assay [1] was found to be 429 nM; in assay [3], 325 nM.
For `CCS(=O)(=O)n1cc2c3ccc(cc31)OCCCn1cc(cn1)-c1cc(c(C)cc1N1CCN(C)CC1)Nc1ncc(Cl)c-2n1` [HC9452, 2^5-chloro-1^1-ethylsulfonyl-4^6-methyl-4^4-(4-methylpiperazin-1-yl)-1^1H,5^1H-9-oxa-3-aza-1(3,6)-indole-2(4,2)-pyrimidine-5(4,1)-pyrazole-4(1,3)-benzenacyclononaphane], the IC50 is 4.3 nM on EGFR^L858R/T790M/C797S; 4.3 nM on EGFR^19del/T790M/C797S; 1790 nM in the assay with BaF3 parent cell; 44.7 nM at EGFR^WT; 81 nM in assay [2]. The results for the GI50 in assay [1] and in assay [3] were 472 nM and 591 nM, respectively.
As for `CCS(=O)(=O)n1cc2c3ccc(cc31)OCCCn1cc(cn1)-c1cc(c(OC)cc1N1CCC(N3CCN(C)CC3)CC1)Nc1nccc-2n1` [HC9594, (Z)-1^1-ethylsulfonyl-4^6-methoxy-4^4-(4-methylpiperazin-1-yl) piperidin-1-yl)-1^1H,5^1H-9-oxa-3-aza-1(3,6)-indole-2(4,2)-pyrimidine-5(4,1)-pyrazolol-4(1,3)-benzenacyclononaphane], the IC50 was 2.2 nM at EGFR^L858R/T790M/C797S; 1.7 nM on EGFR^19del/T790M/C797S; greater than 10000 nM in the assay on BaF3 parent cell; 112 nM at EGFR^WT; 925 nM in assay [2]. Moreover, the GI50 in assay [1] turned out to be 1220 nM; in assay [3], 735 nM.

For the origin of these results see US20260184725A1, “CYCLIC 2-AMINOPYRIMIDINE COMPOUND AND PHARMACEUTICAL COMPOSITION AND USE THEREOF” (SHANGHAI INSTITUTE OF ORGANIC CHEMISTRY, CHINESE ACADEMY OF …, priority 2023, published 2026).
